Reference: DBAASP
≈ marks a conversion by molar mass, not a printed value.

Experiments:
Assay in all cases: ≥ marks a high value that may be exact or a test limit, other limits are often not marked, values filed in µg/mL are converted to µM
[1] = test system: Salmonella enterica subsp. enterica serovar Typhi DMST 22842
Vibrio cholerae non-O139 = test system: Vibrio cholerae non-O139
[2] = test system: Escherichia coli ATCC 25922
Vibrio cholerae non-O1 = test system: Vibrio cholerae non-O1
[3] = test system: Staphylococcus epidermidis ATCC 12228
[4] = test system: Staphylococcus aureus ATCC 25923
[5] = test system: Pseudomonas aeruginosa ATCC 27853
[6] = test system: Staphylococcus aureus ATCC 25023
[7] = test system: Streptococcus pneumoniae BCRC 10794
[8] = test system: Staphylococcus aureus BCRC 10780
[9] = test system: Enterococcus faecium CGMCC 1.2334
[10] = test system: Pseudomonas aeruginosa CGMCC 1.860
[11] = test system: Lactococcus lactis AS1.1690
[12] = test system: Klebsiella pneumoniae subsp. pneumoniae CGMCC 1.176
Escherichia coli AS1.349 = test system: Escherichia coli AS1.349
[13] = test system: Klebsiella aerogenes CGMCC 1.876
[14] = test system: Staphylococcus aureus AS1.72
[15] = test system: Enterococcus faecalis CGMCC 1.595
[16] = test system: Enterobacter cloacae CGMCC 1.58
Bacillus cereus AS1.126 = test system: Bacillus cereus AS1.126
[17] = test system: Listeria monocytogenes LO28
[18] = test system: Cronobacter sakazakii DPC 6440

`NC(=O)[C@H](Cc1c[nH]c2ccccc12)NC(=O)[C@H](Cc1c[nH]c2ccccc12)NC(=O)[C@H](CCCN=C(N)N)NC(=O)[C@H](CCCN=C(N)N)NC(=O)[C@H](Cc1c[nH]c2ccccc12)NC(=O)[C@H](Cc1c[nH]c2ccccc12)NC(=O)[C@H](CCCN=C(N)N)NC(=O)[C@H](Cc1c[nH]c2ccccc12)NC(=O)[C@H](Cc1c[nH]c2ccccc12)NC(=O)[C@@H](N)CCCN=C(N)N` [RWWRWWRRWW] was tested, and the MIC [1] was no less than 51.7 µM, the MIC (Vibrio cholerae non-O139) was 13.1 µM (≈ 23 µg/mL) and the MIC [2] was greater than 51.7 µM. For the same compound, the MIC (Vibrio cholerae non-O1) was 13.1 µM (≈ 23 µg/mL), the MIC [3] was greater than 51.7 µM and the MIC [4] was greater than 51.7 µM. For the same compound, the MIC [5] was 26.1 µM (≈ 46 µg/mL).
For `CC(C)C[C@H](NC(=O)[C@H](CC(C)C)NC(=O)[C@H](CC(C)C)NC(=O)[C@H](CC(C)C)NC(=O)[C@H](CC(C)C)NC(=O)[C@H](CCCCN)NC(=O)[C@H](CC(C)C)NC(=O)[C@@H](N)CCCN=C(N)N)C(=O)N[C@@H](CCCN=C(N)N)C(=O)N[C@@H](Cc1c[nH]c2ccccc12)C(N)=O` [RLKLLLLLRW], the MIC [6] was 3.02 µM (≈ 4 µg/mL).
`CC[C@H](C)[C@H](NC(=O)[C@H](CCSC)NC(=O)[C@H](CCCCN)NC(=O)CNC(=O)[C@H](C)NC(=O)[C@H](Cc1cnc[nH]1)NC(=O)[C@H](Cc1ccccc1)NC(=O)[C@H](CC(C)C)NC(C)=O)C(=O)N[C@@H](Cc1cnc[nH]1)C(N)=O` [LFHAGKMIH] showed an MIC [7] of no less than 94.9 µM and an MIC [8] of no less than 94.9 µM.
`NC(N)=NCCC[C@H](NC(=O)[C@H](Cc1cnc[nH]1)NC(=O)[C@H](Cc1c[nH]c2ccccc12)NC(=O)[C@H](Cc1ccccc1)NC(=O)[C@H](CCCN=C(N)N)NC(=O)[C@H](CCCN=C(N)N)NC(=O)[C@@H](N)Cc1c[nH]c2ccccc12)C(=O)O` [WRRFWHR] showed an MIC [9] of 25 µM (≈ 28.6 µg/mL), an MIC [10] of 25 µM (≈ 28.6 µg/mL) and an MIC [11] of no less than 50 µM. The MIC [12] was no less than 100 µM, the MIC (Escherichia coli AS1.349) was 25 µM (≈ 28.6 µg/mL) and the MIC [13] was no less than 100 µM. It also gave an MIC [14] of 25 µM (≈ 28.6 µg/mL), an MIC [15] of no less than 50 µM and an MIC [16] of no less than 100 µM. For the same compound, the MIC (Bacillus cereus AS1.126) was 25 µM (≈ 28.6 µg/mL).
For `CC[C@H](C)[C@H](NC(=O)[C@@H](NC(=O)[C@H](CCCCN)NC(=O)[C@@H](NC(=O)[C@H](CCCCN)NC(=O)[C@@H]1CCCN1C(=O)[C@H](CCC(N)=O)NC(=O)[C@H](C)NC(=O)[C@@H](N)Cc1c[nH]c2ccccc12)[C@@H](C)O)C(C)C)C(=O)N1CCC[C@H]1C(=O)N[C@@H](Cc1ccc(O)cc1)C(=O)N[C@H](C(=O)N[C@@H](CCCN=C(N)N)C(=O)N[C@@H](Cc1ccc(O)cc1)C(=O)N[C@@H](CC(C)C)C(=O)O)C(C)C` [WAQPKTKVIPYVRYL], the MIC [17] was no less than 39.1 µM and the MIC [18] was no less than 39.1 µM.
